We go through 19 compounds from patent US10138236B2, “Factor xia-inhibiting pyridobenzazepine and pyridobenzazocine derivatives” (BAYER PHARMA AKTIENGESELLSCHAFT, priority 2014, dated 2018).

pIC50: −log10 of the molar value.

By pIC50 is commonly meant the IC50 on a negative log10 scale, so that one unit is a factor of ten. A lower pIC50 goes with a high IC50.

One assay concerns the target human plasma kallikrein (Homo sapiens (Human), UniProt P03952). Briefly: Determination of the plasma kallikrein activity. Type of assay: biochemical. The following applies: plasma kallikrein from Kordia, substrate H-Pro-Phe-Arg-AMC, fluorescence. As to the method: a.5) Determination of the Plasma Kallikrein Activity
To determine the plasma kallikrein inhibition of the substances according to the invention, a biochemical test system is used which utilizes the reaction of a peptidic plasma kallikrein substrate to determine the enzymatic activity of human plasma kallikrein. Here, plasma kallikrein cleaves from the peptic plasma kallikrein substrate the C-terminal aminomethylcoumarin (AMC), the fluorescence of which is measured. The determinations are carried out in microtitre plates.
1 μl of the diluted substance solutions is placed into each of the wells of white microtitre plates from Greiner (384 wells). 20 μl of assay buffer (50 mM Tris/HCl pH 7.4; 100 mM sodium chloride solution; 5 mM of calcium chloride solution; 0.1% of bovine serum albumin) and 20 μl of plasma kallikrein from Kordia (0.6 nM in assay buffer) are then added successively. After 15 min of incubation, the enzyme reaction is started by addition of 20 μl of the substrate H-Pro-Phe-Arg-AMC dissolved in assay buffer (10 μM in assay buffer) from Bachem, the mixture is incubated at room temperature (22° C.) for 30 min and fluorescence is then measured (excitation: 360 nm, emission: 460 nm). The measured emissions of the test batches with test substance are compared to those of control batches without test substance (only dimethyl sulphoxide instead of test substance in dimethyl sulphoxide), and IC50 values are calculated from the concentration/activity relationships.

In another assay the target is human factor XIa (Homo sapiens (Human), UniProt P03951). Briefly: Measurement of FXIa inhibition. It counts as biochemical. The settings on record: factor XIa from Kordia, substrate Boc-Glu(OBzl)-Ala-Arg-AMC, fluorescence. As to the method:
a.1) Measurement of FXIa Inhibition
The factor XIa inhibition of the substances according to the invention is determined using a biochemical test system which utilizes the reaction of a peptidic factor XIa substrate to determine the enzymatic activity of human factor XIa. Here, factor XIa cleaves from the peptic factor XIa substrate the C-terminal aminomethylcoumarin (AMC), the fluorescence of which is measured. The determinations are carried out in microtitre plates.
1 μl of the diluted substance solutions is placed into each of the wells of white microtitre plates from Greiner (384 wells). […] After 15 min of incubation, the enzyme reaction is started by addition of 20 μl of the factor XIa substrate Boc-Glu(OBzl)-Ala-Arg-AMC dissolved in assay buffer (10 μM in assay buffer) from Bachem, the mixture is incubated at room temperature (22° C.) for 30 min and fluorescence is then measured (excitation: 360 nm, emission: 460 nm). The measured emissions of the test batches with test substance are compared to those of control batches without test substance (only dimethyl sulphoxide instead of test substance in dimethyl sulphoxide), and IC50 values are calculated from the concentration/activity relationships.

human plasma kallikrein, sequence (P03952 391-638): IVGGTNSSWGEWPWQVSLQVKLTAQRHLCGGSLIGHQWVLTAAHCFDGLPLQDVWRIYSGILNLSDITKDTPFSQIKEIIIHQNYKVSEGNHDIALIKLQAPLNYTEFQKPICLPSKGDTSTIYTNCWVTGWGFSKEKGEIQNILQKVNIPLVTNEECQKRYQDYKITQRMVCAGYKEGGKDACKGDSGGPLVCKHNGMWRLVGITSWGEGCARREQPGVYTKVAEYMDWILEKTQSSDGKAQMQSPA
human plasma kallikrein, sequence (P03952 20-390 partner): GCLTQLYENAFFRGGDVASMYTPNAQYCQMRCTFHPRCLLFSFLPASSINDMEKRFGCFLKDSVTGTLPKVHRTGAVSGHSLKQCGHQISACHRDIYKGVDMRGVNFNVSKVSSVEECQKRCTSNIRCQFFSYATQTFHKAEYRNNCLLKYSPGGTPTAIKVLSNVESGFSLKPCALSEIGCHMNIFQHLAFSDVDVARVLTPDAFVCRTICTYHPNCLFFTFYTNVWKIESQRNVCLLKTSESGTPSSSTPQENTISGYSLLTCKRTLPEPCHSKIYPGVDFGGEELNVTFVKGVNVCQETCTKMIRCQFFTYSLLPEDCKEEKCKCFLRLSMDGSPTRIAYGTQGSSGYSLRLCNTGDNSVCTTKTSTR
human factor XIa, sequence (P03951 388-625): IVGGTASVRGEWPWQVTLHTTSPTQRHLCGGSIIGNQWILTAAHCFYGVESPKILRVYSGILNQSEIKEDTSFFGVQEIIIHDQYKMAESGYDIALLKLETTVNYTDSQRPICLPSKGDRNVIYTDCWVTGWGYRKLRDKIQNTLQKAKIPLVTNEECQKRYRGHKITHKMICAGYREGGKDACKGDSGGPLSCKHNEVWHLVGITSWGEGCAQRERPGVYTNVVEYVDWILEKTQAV
human factor XIa, sequence (P03951 19-387 partner): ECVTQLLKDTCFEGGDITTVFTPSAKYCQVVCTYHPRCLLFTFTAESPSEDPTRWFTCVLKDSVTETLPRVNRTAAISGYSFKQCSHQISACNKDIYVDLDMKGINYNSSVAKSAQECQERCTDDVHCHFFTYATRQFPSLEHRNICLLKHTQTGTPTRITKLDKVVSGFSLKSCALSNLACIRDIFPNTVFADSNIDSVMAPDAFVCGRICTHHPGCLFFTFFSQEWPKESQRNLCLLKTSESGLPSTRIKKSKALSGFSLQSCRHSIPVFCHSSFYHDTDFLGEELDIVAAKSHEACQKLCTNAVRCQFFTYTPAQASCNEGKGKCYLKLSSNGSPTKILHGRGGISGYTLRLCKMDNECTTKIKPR

For `CCC(C(=O)Nc1ccc(-c2noc(=O)[nH]2)cc1)n1cc2c(cc1=O)-c1cc(Cl)ccc1CNC2=O` (centres unmarked) [Example 2, 2-(10-Chloro-2,5-dioxo-2,5,6,7-tetrahydro-3H-pyrido[3,4-d][2]benzazepin-3-yl)-N-[4-(5-oxo-4,5-dihydro-1,2,4-oxadiazol-3-yl)phenyl]butanamide], the pIC50 is 5.31 against human plasma kallikrein and 6.55 against human factor XIa.

Regarding `O=C(Cn1cc2c(cc1=O)-c1cc(Cl)ccc1CCNC2=O)Nc1ccc(C(=O)O)cc1` [Example 4, 4-{[(11-Chloro-2,5-dioxo-5,6,7,8-tetrahydropyrido[3,4-e][3]benzazocin-3(2H)-yl)acetyl]amino}benzoic acid], the negative logarithm of the IC50 (pIC50) on human plasma kallikrein was 4.74; on human factor XIa, 6.14.

For `COCCC(C(=O)Nc1ccc2c(=O)n(C)[nH]c2c1)n1cc2c(cc1=O)-c1cc(Cl)ccc1CC1(CC1)NC2=O` (centres unmarked) [Example 19, 2-(11′-Chloro-2′,5′-dioxo-2′,5′,6′,8′-tetrahydro-3′H-spiro[cyclopropane-1,7′-pyrido[3,4-e][3]benzazocine]-3′-yl)-4-methoxy-N-(2-methyl-3-oxo-2,3-dihydro-1H-indazol-6-yl)butanamide], the pIC50 against human plasma kallikrein was 6.64; against human factor XIa it was 8.08.

As to `COCCC(C(=O)Nc1csc(C(=O)O)c1)n1cc2c(cc1=O)-c1cc(Cl)ccc1CC1(CC1)NC2=O` (centres unmarked) [Example 24, 4-{[2-(11′-Chloro-2′,5′-dioxo-2′,5′,6′,8′-tetrahydro-3′H-spiro[cyclopropane-1,7′-pyrido[3,4-e][3]benzazocine]-3′-yl)-4-methoxybutanoyl]amino}thiophene-2-carboxylic acid], the pIC50 against human plasma kallikrein was 6.10; at human factor XIa it was 7.46.

For the compound `CCC(C(=O)Nc1ccc(-c2noc(=O)[nH]2)cc1)n1cc2c(cc1=O)-c1cc(Cl)ccc1CCNC2=O` (centres unmarked) [Example 7, 2-(11-Chloro-2,5-dioxo-5,6,7,8-tetrahydropyrido[3,4-e][3]benzazocin-3(2H)-yl)-N-[4-(5-oxo-4,5-dihydro-1,2,4-oxadiazol-3-yl)phenyl]butanamide], the pIC50 on human plasma kallikrein was 5.48; at human factor XIa, 7.36.

On to `CCC(C(=O)Nc1ccc(-c2noc(=O)[nH]2)cc1)n1cc2c(cc1=O)-c1cc(Cl)ccc1CC1(CC1)NC2=O` (centres unmarked) [Example 11, 2-(11′-Chloro-2′,5′-dioxo-2′,5′,6′,8′-tetrahydro-3′H-spiro[cyclopropane-1,7′-pyrido[3,4-e][3]benzazocine]-3′-yl)-N-[4-(5-oxo-4,5-dihydro-1,2,4-oxadiazol-3-yl)phenyl]butanamide], for which the values for the pIC50 against human plasma kallikrein and on human factor XIa were 5.77 and 7.80, respectively.

Consider `CC(C)CC(C(=O)Nc1ccc(C(=O)O)cc1)n1cc2c(cc1=O)-c1cc(Cl)ccc1CCNC2=O` (centres unmarked) [Example 8, 4-{[2-(11-Chloro-2,5-dioxo-5,6,7,8-tetrahydropyrido[3,4-e][3]benzazocin-3(2H)-yl)-4-methylpentanoyl]amino}benzoic acid], for which the pIC50 is 6.17 against human plasma kallikrein and 7.44 against human factor XIa.

For the compound `COCCC(C(=O)Nc1ccc2[nH]ncc2c1)n1cc2c(cc1=O)-c1cc(Cl)ccc1CC1(CC1)NC2=O` (centres unmarked) [Example 18, 2-(11′-Chloro-2′,5′-dioxo-2′,5′,6′,8′-tetrahydro-3′H-spiro[cyclopropane-1,7′-pyrido[3,4-e][3]benzazocine]-3′-yl)-N-(1H-indazol-5-yl)-4-methoxybutanamide], the pIC50 is 6.48 against human plasma kallikrein and 7.68 against human factor XIa.

For `CO[C@H]1CC[C@H](CC(C(=O)Nc2ccc(C(=O)O)cc2)n2cc3c(cc2=O)-c2cc(Cl)ccc2CC2(CC2)NC3=O)CC1` (stereo partly drawn) [Example 25, 4-{[2-(11′-Chloro-2′,5′-dioxo-2′,5′,6′,8′-tetrahydro-3′H-spiro[cyclopropane-1,7′-pyrido[3,4-e][3]benzazocine]-3′-yl)-3-(trans-4-methoxycyclohexyl)propanoyl]amino}benzoic acid], the pIC50 against human plasma kallikrein is 6.43; on human factor XIa, 8.60.

`COCCC(C(=O)Nc1ccc(C(N)=O)c(F)c1)n1cc2c(cc1=O)-c1cc(Cl)ccc1CC1(CC1)NC2=O` (centres unmarked) [Example 13, 4-{[2-(11′-Chloro-2′,5′-dioxo-2′,5′,6′,8′-tetrahydro-3′H-spiro[cyclopropane-1,7′-pyrido[3,4-e][3]benzazocine]-3′-yl)-4-methoxybutanoyl]amino}-2-fluorobenzamide]: the pIC50 is 6.11 on human plasma kallikrein and 7.57 against human factor XIa.

Take `CC(C)CC(C(=O)Nc1ccc(-c2noc(=O)[nH]2)cc1)n1cc2c(cc1=O)-c1cc(Cl)ccc1CCNC2=O` (centres unmarked) [Example 9, 2-(11-Chloro-2,5-dioxo-5,6,7,8-tetrahydropyrido[3,4-e][3]benzazocin-3(2H)-yl)-4-methyl-N-[4-(5-oxo-4,5-dihydro-1,2,4-oxadiazol-3-yl)phenyl]pentanamide]: the pIC50 is 5.42 against human plasma kallikrein and 6.85 against human factor XIa.

On to `COCCC(C(=O)Nc1ccc(C(=O)O)cc1)n1cc2c(cc1=O)-c1cc(Cl)ccc1CC(CF)NC2=O` (centres unmarked) [Example 33, 4-({2-[11-Chloro-7-(fluoromethyl)-2,5-dioxo-5,6,7,8-tetrahydropyrido[3,4-e][3]benzazocin-3(2H)-yl]-4-methoxybutanoyl}amino)benzoic acid], for which the pIC50 against human plasma kallikrein was 7.01; on human factor XIa it was 8.92.

For `COCCC(C(=O)Nc1ccc(C(=O)O)cc1)n1cc2c(cc1=O)-c1cc(Cl)ccc1CC1(CC1)NC2=O` (centres unmarked) [Example 12, 4-{[2-(11′-Chloro-2′,5′-dioxo-2′,5′,6′,8′-tetrahydro-3′H-spiro[cyclopropane-1,7′-pyrido[3,4-e][3]benzazocine]-3′-yl)-4-methoxybutanoyl]amino}benzoic acid], the results for the pIC50 at human plasma kallikrein and against human factor XIa were 6.41 and 8.72, respectively.

With `Cn1cc2cc(NC(=O)C(Cc3ccccc3)n3cc4c(cc3=O)-c3cc(Cl)ccc3CC3(CC3)NC4=O)ccc2n1` (centres unmarked) [Example 30, 2-(11′-Chloro-2′,5′-dioxo-2′,5′,6′,8′-tetrahydro-3′H-spiro[cyclopropane-1,7′-pyrido[3,4-e][3]benzazocine]-3′-yl)-N-(2-methyl-2H-indazol-5-yl)-3-phenylpropanamide], the results for the pIC50 against human plasma kallikrein and against human factor XIa were 7.35 and 8.35, respectively.

As to `O=C1NC2(CC2)Cc2ccc(Cl)cc2-c2cc(=O)n(C(Cc3ccccc3)C(=O)Nc3ccc4[nH]c(=O)[nH]c4c3)cc21` (centres unmarked) [Example 29, 2-(11′-Chloro-2′,5′-dioxo-2′,5′,6′,8′-tetrahydro-3′H-spiro[cyclopropane-1,7′-pyrido[3,4-e][3]benzazocine]-3′-yl)-N-(2-oxo-2,3-dihydro-1H-benzimidazol-5-yl)-3-phenylpropanamide], the figures for the pIC50 against human plasma kallikrein and against human factor XIa were 7.38 and 8.35, respectively.

With `COCCC(C(=O)Nc1cc(C(=O)O)cs1)n1cc2c(cc1=O)-c1cc(Cl)ccc1CC1(CC1)NC2=O` (centres unmarked) [Example 23, 5-{[2-(11′-Chloro-2′,5′-dioxo-2′,5′,6′,8′-tetrahydro-3′H-spiro[cyclopropane-1,7′-pyrido[3,4-e][3]benzazocine]-3′-yl)-4-methoxybutanoyl]amino}thiophene-3-carboxylic acid], the negative-log IC50 (pIC50) was 5.41 against human plasma kallikrein and 7.00 at human factor XIa.

`CCC(C(=O)Nc1ccc(C(=O)O)cc1)n1cc2c(cc1=O)-c1cc(Cl)ccc1CCNC2=O` (centres unmarked) [Example 6, 4-{[2-(11-Chloro-2,5-dioxo-5,6,7,8-tetrahydropyrido[3,4-e][3]benzazocin-3(2H)-yl)butanoyl]amino}benzoic acid]: the pIC50 against human plasma kallikrein was 5.72; at human factor XIa, 7.55.

Turning to `COCCC(C(=O)Nc1ccc(C(=O)O)nc1)n1cc2c(cc1=O)-c1cc(Cl)ccc1CC1(CC1)NC2=O` (centres unmarked) [Example 20, 5-{[2-(11′-Chloro-2′,5′-dioxo-2′,5′,6′,8′-tetrahydro-3′H-spiro[cyclopropane-1,7′-pyrido[3,4-e][3]benzazocine]-3′-yl)-4-methoxybutanoyl]amino}pyridine-2-carboxylic acid], the pIC50 on human plasma kallikrein is 5.35; against human factor XIa it was 7.33.

Regarding `CO[C@H]1CC[C@H](CC(C(=O)Nc2ccc(C(N)=O)c(F)c2)n2cc3c(cc2=O)-c2cc(Cl)ccc2CC2(CC2)NC3=O)CC1` (stereo partly drawn) [Example 26, 4-{[2-(11′-Chloro-2′,5′-dioxo-2′,5′,6′,8′-tetrahydro-3′H-spiro[cyclopropane-1,7′-pyrido[3,4-e][3]benzazocine]-3′-yl)-3-(trans-4-methoxycyclohexyl)propanoyl]amino}-2-fluorobenzamide], the pIC50 against human plasma kallikrein was 6.13; against human factor XIa, 7.47.
